# Measured values taken from publication PMC11109052, “Metabolism characterization and toxicity of N-hydap, a marine candidate drug for lung cancer therapy by LC–MS method” (Natural Products and Bioprospecting, 2024).
# Legend:
# Ugt1a9 = assay: DME activity ex vivo in MLMs and MKMs: UGT1A9 (Prop-G from Prop); set-up: species or system mice; key to UGT1A9 Enzymatic activity: ↑: up-regulation; ↓: down-regulation; –: no change
# Procedure: (§1) Mice were randomly divided into four groups, with eight animals in each group. The mice received oral pretreatment with N-hydap for 7 days at doses of 2, 5, and 10 mg/kg/day, which were considered as the low dose, medium dose, and high dose, respectively. Correspondingly, the control group received PBS. On the 8th day, the liver and kidneys were removed, and organs from eight mice per group were combined to prepare MLMs and MKMs using the detailed procedures above. Subsequently, we determined the activity of CYP and UGT enzymes by specific substrate metabolized with MLMs (0.5 mg/mL) and MKMs (0.2 mg/mL) in vitro. Specifically, the following selective substrates were used for the respective enzymes: PH (1 μM) for CYP1A2, DIC (1 μM) for CYP2C9, MP (90 μM) for CYP2C19, DM (1 μM) for CYP2D6, CZX (10 μM) for CYP2E1, Tes (1 μM) for CYP3A4, SN38 (1 μM) for UGT1A1, CACD (100 μM) for UGT1A3, Sero (20 μM) for UGT1A6, and Prop (1 μM) for UGT1A9. All substrates were dissolved in methanol or DMSO. The incubation procedure was carried out as mentioned above, and the reaction was terminated with VER (20 ng/mL) in ESI+ mode and CLP (200 ng/mL) in ESI− mode. In the ex vivo experiments, the activity of enzymes was measured by quantifying the production of various metabolites (nM/mg protein/min). The metabolites and their corresponding enzymes are as follows: APAP from PH, 4-OH-DIC from DIC, 4-OH-MP from MP, DXO from DM, 6-OH-CZX from CZX, 6-OH-Tes from Tes, SN38-G from SN38, CACD-G from CACD, Sero-G from Sero, Prop-G from Prop. The measurements were performed using multiple reaction monitoring (MRM) transitions, which are specific mass spectrometry transitions used for quantification. The optimized parameters for each metabolite, such as declustering potential and collision energy, were described in Supplementary Table 1. All experiments were conducted in triplicate, to ensure accuracy and reproducibility.
# [1] = target: T1, recombinant human CYP enzymes (CYP1A2, CYP2B6, CYP2C9, CYP2C19, CYP2D6, CYP3A4, CYP4A11 and CYP4F2) (Homo sapiens, UniProt P08684); assay: Incubation with 8 recombinant human CYP enzymes; format: in vitro ADME; conditions: Table 4 experimental column
# T1 construct: purchased Cypex (Scotland, UK)
# T1 sequence (P08684 whole entry): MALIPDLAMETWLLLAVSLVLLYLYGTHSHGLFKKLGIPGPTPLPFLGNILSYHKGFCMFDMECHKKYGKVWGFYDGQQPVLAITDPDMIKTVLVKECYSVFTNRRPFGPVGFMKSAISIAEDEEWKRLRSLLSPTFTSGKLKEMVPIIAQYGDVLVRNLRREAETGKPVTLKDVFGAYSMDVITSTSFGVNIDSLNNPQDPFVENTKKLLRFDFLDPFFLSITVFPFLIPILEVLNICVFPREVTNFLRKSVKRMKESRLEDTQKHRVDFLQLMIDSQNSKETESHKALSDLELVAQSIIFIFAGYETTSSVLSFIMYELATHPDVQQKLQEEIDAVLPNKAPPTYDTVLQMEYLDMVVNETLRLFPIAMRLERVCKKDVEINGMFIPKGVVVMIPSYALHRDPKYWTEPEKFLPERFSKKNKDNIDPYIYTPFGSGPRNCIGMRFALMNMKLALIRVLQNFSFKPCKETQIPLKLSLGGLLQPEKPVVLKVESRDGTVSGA
# Procedure: (§2) Incubation of N-hydap (2.5 μM) with eight recombinant human CYP enzymes (CYP1A2, CYP2B6, CYP2C9, CYP2C19, CYP2D6, CYP3A4, CYP4A11 and CYP4F2) at three enzyme concentrations (2, 4, and 20 μg/mL) was conducted following the same procedure as described above for microsomes. Subsequently, incubation with N-hydap (1, 2.5, and 6 μM) and twelve recombinant human UGT isoforms (UGT1A1, UGT1A3, UGT1A4, UGT1A6, UGT1A7, UGT1A8, UGT1A9, UGT1A10, UGT2B4, UGT2B7, UGT2B15 and UGT2B17) was performed, with the enzyme concentration used at 2 μg/mL. All reactions were carried out in triplicate.
# [2] = target: T2, recombinant human CYP enzymes (CYP1A2, CYP2B6, CYP2C9, CYP2C19, CYP2D6, CYP3A4, CYP4A11 and CYP4F2) (Homo sapiens, UniProt P11712); assay: Incubation with 8 recombinant human CYP enzymes; format: in vitro ADME; conditions: Table 4 experimental column
# T2 construct: purchased Cypex (Scotland, UK)
# T2 sequence (P11712 whole entry): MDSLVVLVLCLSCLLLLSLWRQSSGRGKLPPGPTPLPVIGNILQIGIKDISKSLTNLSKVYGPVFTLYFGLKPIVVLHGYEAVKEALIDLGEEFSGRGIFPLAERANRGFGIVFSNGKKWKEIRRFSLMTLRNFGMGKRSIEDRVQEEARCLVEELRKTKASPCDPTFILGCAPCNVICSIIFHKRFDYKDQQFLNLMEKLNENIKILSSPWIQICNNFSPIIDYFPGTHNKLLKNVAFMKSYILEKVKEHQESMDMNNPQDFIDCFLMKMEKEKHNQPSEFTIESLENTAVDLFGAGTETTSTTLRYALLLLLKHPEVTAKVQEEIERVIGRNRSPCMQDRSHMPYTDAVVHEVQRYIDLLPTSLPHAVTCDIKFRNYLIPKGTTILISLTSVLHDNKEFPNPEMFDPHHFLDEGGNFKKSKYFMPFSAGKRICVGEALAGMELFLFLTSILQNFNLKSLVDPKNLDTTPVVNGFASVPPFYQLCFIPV
# Procedure: as §2
# Ugt1a1 = assay: Real-time PCR mRNA level after 7 days gavage: Ugt1a1; format: in vivo, mice; set-up: key to UGT1A1 mNA expression: ↑: up-regulation; ↓: down-regulation; –: no change
# Procedure: as §1, with “The optimized parameters for each metabolite, such as declustering potential and collision energy, were described in Supplementary Table 1. All experiments were conducted in triplicate, to ensure accuracy and reproducibility.” left out
# Total RNA from liver and kidney samples taken after 7 days of N-hydap gavage was extracted using the Animal Total RNA Isolation Kit (Foregene, Chengdu, Sichuan, China) following the manufacturer’s instructions. The concentrations of total RNA were determined by a nucleic acid concentration tester at 260/280 nm. […]
# Cyp3a11 = assay: Real-time PCR mRNA level after 7 days gavage: Cyp3a11 (human homolog CYP3A4); format: in vivo, mice; set-up: key to CYP3A4 mNA expression: ↑: up-regulation; ↓: down-regulation; –: no change
# Procedure: as §1
# Total RNA from liver and kidney samples taken after 7 days of N-hydap gavage was extracted using the Animal Total RNA Isolation Kit (Foregene, Chengdu, Sichuan, China) following the manufacturer’s instructions. The concentrations of total RNA were determined by a nucleic acid concentration tester at 260/280 nm. A HiScript III RT SuperMix for qPCR (+ gDNA wiper) (Vazyme, Nanjing, Jiangsu, China) was used to measure the concentration of the synthesized cDNA. ChamQ SYBR qPCR Master Mix (Vazyme, Nanjing, Jiangsu, China) and detection were performed using a Light Cycler 480 II (ROCHE, Basel, Switzerland). Real-time PCR was used to analyze the relative mRNA levels of Cyp1a2, Cyp2b10, Cyp2c39, Cyp2d22, Cyp2e1, Cyp3a11, Ugt1a1, Ugt1a6a and Ugt1a9 (human homologs: CYP1A2, CYP2B6, CYP2C19, CYP2D6, CYP2E1, CYP3A4, UGT1A1, UGT1A6, and UGT1A9) in the liver, kidneys, and intestines. […]
# CYP2C9 = assay: DME activity ex vivo in MLMs and MKMs: CYP2C9 (4-OH-DIC from DIC); conditions: liver microsomes of mice pretreated 7 days p.o.
# Procedure: as §1, with “The incubation procedure was carried out as mentioned above, and the reaction was terminated with VER (20 ng/mL) in ESI+ mode and CLP (200 ng/mL) in ESI− mode.” left out, “The metabolites and their corresponding enzymes are as follows: APAP from PH, 4-OH-DIC from DIC, 4-OH-MP from MP, DXO from DM, 6-OH-CZX from CZX, 6-OH-Tes from Tes, SN38-G from SN38, CACD-G from CACD, Sero-G from Sero, Prop-G from Prop.” left out, “The optimized parameters for each metabolite, such as declustering potential and collision energy, were described in Supplementary Table 1. All experiments were conducted in triplicate, to ensure accuracy and reproducibility.” left out
# CYP3A4 = assay: DME activity ex vivo in MLMs and MKMs: CYP3A4 (6-OH-Tes from Tes); set-up: species or system mice; key to CYP3A4 Enzymatic activity: ↑: up-regulation; ↓: down-regulation; –: no change
# Procedure: as §1
# [3] = Distribution studies in mice organs; format: in vivo; conditions: 30 min and 4 h
# Procedure: The heart, liver, spleen, lungs and kidneys were removed from mice after administering a dose of 5 mg/kg through oral gavage and 2 mg/kg through tail vein injection at 30 min and 240 min, followed by homogenization with normal saline. The resulting homogenate was centrifuged at 4 °C, 13,000 rpm for 20 min, and the supernatant was then mixed with the internal standard by vortexing. The mixtures were centrifuged at 4 °C, 13,000 rpm for 15 min. The resulting supernatant was then subjected to vacuum drying for 3–4 h. Lastly, the dried powder was reconstituted with a mixture of 50% methanol and water, and then centrifuged for LC–MS testing.
smiles,measurement,setting,value
"CC1CCC2C(C=CC(C)C2C(=O)c2c(O)c(C3(O)CCC(O)C4OC43)cn(O)c2=O)C1 (stereo not drawn) [N-hydap, N-Hydroxyapiosporamide]",UGT1A9 Enzymatic activity,Ugt1a9; Kidney,↑
same,UGT1A9 Enzymatic activity,Ugt1a9; Liver,↓
same,reduction of formation rate of Prop-G vs control,Ugt1a9; liver microsomes of mice pretreated 7 days p.o.,47%
same,"CYP3A4 substrate, experimental results",[1],Yes
same,"CYP2C9 substrate, experimental results",[2],Yes
same,UGT1A1 mNA expression,Ugt1a1; Kidney,↓
same,UGT1A1 mNA expression,Ugt1a1; Liver,–
same,mRNA levels of Ugt1a1,"Ugt1a1; mice, 2, 5, 10 mg/kg p.o. 7 days, kidneys",slight reduction
same,CYP3A4 mNA expression,Cyp3a11; Kidney,↑
same,CYP3A4 mNA expression,Cyp3a11; Liver,↑
same,mRNA levels of Cyp3a11,"Cyp3a11; mice, 2, 5, 10 mg/kg p.o. 7 days, intestines",slight reduction
same,increase of mRNA levels of Cyp3a11,"Cyp3a11; mice, 2, 5, 10 mg/kg p.o. 7 days, liver and kidneys",78%-160%
same,reduction of formation rate of 4-OH-DIC vs control,CYP2C9,70%
same,CYP3A4 Enzymatic activity,CYP3A4; Kidney,↑
same,CYP3A4 Enzymatic activity,CYP3A4; Liver,↑
same,elevation of formation rate of 6-OH-Tes,"CYP3A4; MLMs and MKMs, range stated jointly for APAP, SN38-G, 6-OH-Tes and CDCA-G",12%-331%
same,"CYP3A4 inhibitor, experimental results",CYP3A4; Table 4 experimental column,No
same,"total distribution ratio, heart",[3]; oral 5 mg/kg,13.35%
same,"total distribution ratio, kidneys",[3]; oral 5 mg/kg,25.50%
same,"total distribution ratio, liver",[3]; oral 5 mg/kg,11.45%
same,"total distribution ratio, lungs",[3]; oral 5 mg/kg,26.26%
same,"total distribution ratio, spleen",[3]; oral 5 mg/kg,23.44%
same,"total distribution ratio, heart",[3]; tail vein injection 2 mg/kg,10.57%
same,"total distribution ratio, kidneys",[3]; tail vein injection 2 mg/kg,14.08%
same,"total distribution ratio, liver",[3]; tail vein injection 2 mg/kg,37.61%
same,"total distribution ratio, lungs",[3]; tail vein injection 2 mg/kg,23.17%
same,"total distribution ratio, spleen",[3]; tail vein injection 2 mg/kg,14.57%
